Measurements: patent US5420228A, “Fluorescent-labelled bleomycin analogues” (University of Pittsburgh of the Commonwealth System of …, priority 1994, dated 1995)
Entries after “also recorded” stand apart in the source; their conditions may differ.

Legend:
[1] = system: A-253 human head and neck squamous carcinoma cells; test: MTT microculture growth inhibition assay, A-253 cells; type: cell-based; details: for IC50: cells exposed to drugs for 4 days, MTT, ± SEM of 16 or more determinations
Protocol: (§1) A-253 human head and neck squamous carcinoma cells were obtained from the American Type Culture Collection (Rockville, Md.) and were grown in McCoy's medium supplemented with 10% fetal bovine serum (Hyclone, Logan, Utah) as previously described. See, Lazo, J. S., et al., "Characteristics of Bleomycin-resistant Phenotypes of Human Cell Sublines and Circumvention of Bleomycin Resistance by Liblomycin," Cancer Res , 49: 185-190, (1989). The BLM-resistant (C-10E) cell line was derived from A-253 cells as previously described. Id., incorporated by reference herein, and was maintained in the continuous presence of 50 nM BLM. The revertant (C-10E^R) cells were obtained by growing C-10E cells in the absence of BLM for 3 months. Cell lines were maintained at 37° C. in a humidified incubator with 95% air, 5% CO2 atmosphere.
(§2) The effect of drugs on cellular proliferation was determined using the previously described MTT microculture assay. See, Twentyman, P. R., et al., "Study of Some Variables in a Tetrazolium Dye (MTT) Based Assay for Cell Growth and Chemosensitivity," Br. J Cancer, 56: 279-285, (1987). Exponentially growing cells were plated at a density of 2 to 4×10^3 cells per well in 100 μl volume into 96-well microtiter plates (Costar, Cambridge, Mass.). After 3 hours, various concentrations of drugs were added and the plates were incubated for 4 days at 37° C. under humidified 5% CO2 -95% air atmosphere. After 4 days, the medium was replaced with 100 μl of 1 mg/ml MTT in McCoy's medium, and cells were incubated with MTT solution in McCoy's medium for 3 hours at 37° C. Excess MTT was removed, the formazan generated was dissolved in 100 μl DMSO, and the absorbance at wavelength 540 nm was determined spectrophotometrically (Titertek Multiskan; Flow Labs, McLean, Va.). The drug concentrations required to inhibit cell growth by 50% (IC50) were then determined.

C-10E cells [2] = test: MTT microculture growth inhibition assay, BLM-resistant C-10E cells; type: cell-based, human; details: for IC50: cells exposed to drugs for 4 days, MTT, ± SEM; for resistance index C-10E: ratio of IC50 for C-10E cells compared to the IC50 for A-253 cells; for fold resistance of C-10E cells: C-10E clone relative to A-253 cells
Protocol: as §1, §2

[3] = Fluorescent intensity and quantum yield in solution; type: physicochemical; details: for relative fluorescent units: 1 μM solutions
Protocol: Absorption spectra were obtained using a Perkin-Elmer (Lambda 2) UV/VIS spectrophotometer. Fluorescence spectra were obtained by using either a Perkin-Elmer 650-10S fluorescent spectrophotometer or a SPEX Fluorolog 2. Proton NMR spectra were recorded with a Bruker 300 MHz pulsed fourier transform spectrometer. The chemical shifts were determined with respect to internal standards: tetramethylsilane or 4-trimethylsilylpropanesulfonic acid.

C-10E^R cells [4] = test: MTT microculture growth inhibition assay, revertant C-10E^R cells; type: cell-based, human; details: for resistance index C-10E ®: ratio of IC50 for C-10E ® cells compared to the IC50 for A-253 cells; for IC50: revertant cells, exposed to drugs for 4 days, MTT, ± SEM
Protocol: as §1, §2

[5] = system: form I plasmid pGEM-3Z DNA; test: DNA cleavage assay, agarose gel electrophoresis and densitometry; type: biochemical; details: for form I DNA remaining after 1 minute incubation: equipotent concentrations: TLM S10b 0.05 μM, FLM 0.62 μM
Protocol: The ability of various drugs to cause breakage of covalently closed circular DNA was determined using a slight modification of a previously described DNA cleavage assay. See, Lazo, J. S., et al, "Enhanced Bleomycin-induced DNA Damage and Cytotoxicity with Calmodulin Antagonists," Molec. Pharmacol., 27: 387-393, (1985). Metal-free FLM was first made by chelating the metal with dithizone using a previously described procedure. See, Roy, S. R., et al., "Chemical Synthesis of Radiolabeled Bleomycin A2 and its Binding to DNA," Cancer Res., 41: 4471-4477, (1981), incorporated by reference herein. […] The disappearance of form I DNA and the appearance of form II and form III DNA were assayed by gel electrophoresis with 1.2% agarose gels at room temperature for 15 h at 30 V in a buffer containing 40 mM Tris-acetate and 1 mM EDTA. The gel was then stained with 1 μg/ml ethidium bromide for 1 hour and the DNA visualized by UV irradiation. A negative film of the gel was recorded and scanned using an LKB 2400 GelScan XL densitometer. The effect of incubation time on cleavage of pGEM-3Z DNA by TLM S10b and FLM was also determined using equipotent amounts of TLM S10b and FLM (0.05 and 0.62 μM, respectively) by gel electrophoresis as described above.
Equipotent concentrations of TLM S10b and FLM (0.05 and 0.62 μM, respectively) were incubated with form I DNA for 1, 5, 10, 20 and 30 minutes and the percent form I DNA remaining was calculated from densitometric scanning of the band corresponding to form I. Following incubation with FLM for 1 minute, only 6.5% form I DNA remained undegraded (lane 8). In contrast, 74% form I DNA remained intact following incubation with TLM S10b for 1 minute (lane 3) and 10 minutes incubation was required to cleave 95% of form I (lane 5).

C-10E^R cells [6] = test: Cell-associated drug by fluorescent spectrophotometry, C-10E^R cells; type: cell-based, human; details: 100 μM FLM, 1 hour, 37° C., fluorometry
Protocol: (§5) Exponentially growing A-253, C-10E or C-10E^R cells were harvested and approximately 1.5×10^6 cells were incubated in 200 µl medium at 37° C. for 60 minutes in the presence or absence of 100 μM FLM. Drug incubation was terminated by washing the cells with 3×1 ml of ice-cold PBS, resuspending the cells in 1 ml of 50 mM bicarbonate buffer (pH=9.0) and lysing by sonication (4×5 sec). The cell lysate was centrifuged at 12,000 rpm (Eppendorf Microcentrifuge 5415 C) to remove cellular debris, and the supernatant was filtered through 0.2 μm SPIN-X centrifuge filter unit (Costar, Cambridge, Mass.). The cell-associated fluorescent was measured using a fluorescent spectrophotometer. Autofluorescent associated with cells in the absence of drug treatment was measured and subtracted from the fluorescent value of the drug-treated group.
(§6) To quantify the levels of cell-associated FLM in A253, C-1OE and C-10E^R cell lines, cells were incubated with 100 μM FLM for 1 hour at 37° C. and the cellular fluorescent of the three cell lines were measured by fluorometry.

C-10E cells [7] = test: Cell-associated drug by fluorescent spectrophotometry, C-10E cells; type: cell-based, human
Protocol: as §5, §6

C-10E cells [8] = test: Flow cytometric analysis of cellular FLM content, C-10E cells; type: cell-based, human
Protocol: (§3) For each analysis, a "control" was included in which each cell line was incubated under identical conditions in the absence of FLM. […] Cells were then suspended in 100 μl PBS, fixed with 2% paraformaldehyde in 100 μl PBS and analyzed by flow cytometry using a Becton-Dickinson FAC Star. Analysis was done using a 2 W laser tuned in at 488 nm at an output strength of 200 mW. The band pass filter range =530/30. The total number of cells analyzed was 5,000.
(§4) The cell diameter as measured by Coulter counter was similar for all the three cell lines ([…]).

A-253 cells [9] = test: Flow cytometric analysis of cellular FLM content, A-253 cells; type: cell-based, human; details: 100 μM FLM, 60 minutes, 37° C.
Protocol: as §3, §4

C-10E^R cells [10] = test: Flow cytometric analysis of cellular FLM content, C-10E^R cells; type: cell-based, human
Protocol: as §3, §4

A-253 cells [11] = test: Cell-associated drug by fluorescent spectrophotometry, A-253 cells; details: 1 hour, 37° C.
Protocol: as §5, §6

[12] = A-253 cells, continuous exposure

With `Cc1c(N)nc([C@H](CC(N)=O)NC[C@H](N)C(N)=O)nc1C(=O)N[C@H](C(=O)N[C@H](C)[C@@H](O)[C@H](C)C(=O)N[C@H](C(=O)NCCc1nc(-c2nc(C(=O)NCCCN(C)CCCN(Cc3ccc(OCc4ccccc4)c(OCc4ccccc4)c3)Cc3ccc(OCc4ccccc4)c(OCc4ccccc4)c3)cs2)cs1)[C@@H](C)O)[C@@H](O[C@@H]1O[C@@H](CO)[C@@H](O)[C@H](O)[C@@H]1O[C@H]1O[C@H](CO)[C@@H](O)[C@H](OC(N)=O)[C@@H]1O)c1cnc[nH]1` [LBM, liblomycin, reference compound] the IC50 [1] was 500 ± 20 nM, the IC50 (C-10E cells [2]) was 570 ± 20 nM and the “resistance index C-10E” value (C-10E cells [2]) was 1.1. The relative fluorescent units [3] was 2.1 relative fluorescent units.
For `Cc1c(N)nc([C@H](CC(N)=O)NC[C@H](N)C(N)=O)nc1C(=O)N[C@H](C(=O)N[C@H](C)[C@@H](O)CC(=O)N[C@H](C(=O)NC(O[C@@H]1O[C@@H](C)[C@@H](N)[C@@H](O)[C@H]1O)C(O)c1nc(-c2nc(C(=O)NCCCCN)cs2)cs1)[C@@H](C)O)[C@@H](O[C@@H]1O[C@@H](CO)[C@@H](O)[C@H](O)[C@@H]1O[C@H]1O[C@H](CO)[C@@H](O)[C@H](OC(N)=O)[C@@H]1O)c1cnc[nH]1` (stereo partly drawn) [TLM S10b, talisomycin S10b, reference compound], the “resistance index C-10E ®” value (C-10E^R cells [4]) was 8, the IC50 (C-10E^R cells [4]) was 410 ± 9 nM and the “form I DNA remaining undegraded” value ([5]; 0.05 μM drug, 20 minutes, stoichiometric Fe(II)) was 21.1%. For the same compound, the “incubation required to cleave 95% of form I DNA” value ([5]; TLM S10b 0.05 μM) was 10 min, the “form I DNA remaining after 1 minute incubation” value [5] was 74% and the IC50 [1] was 50 ± 2.3 nM. For the same compound, the “fold resistance of C-10E cells” value (C-10E cells [2]) was 40- to 50 fold, the IC50 (C-10E cells [2]) was 2700 ± 23 nM and the “resistance index C-10E” value (C-10E cells [2]) was 54. For the same compound, the relative fluorescent units [3] was 2.6 relative fluorescent units.
For fluoromycin [FLM], the “cell-associated FLM” value (C-10E^R cells [6]) was 167 pmol/10^6 cells, the “resistance index C-10E ®” value (C-10E^R cells [4]) was 18 and the IC50 (C-10E^R cells [4]) was 22000 ± 1100 nM. The “cell-associated FLM” value (C-10E cells [7]; C-10E cells, 100 μM FLM, 1 hour, 37° C., fluorometry) was 123 pmol/10^6 cells, the “fold difference in cell-associated FLM, C-10E lower than A-253 cells” value (C-10E cells [7]; fluorescent spectrophotometry) was 2 fold and the “form I DNA remaining after 1 minute incubation” value [5] was 6.5%. The “rate of DNA cleavage relative to TLM S10b” value ([5]; equipotent doses compared directly) was “approximately 10 times”, the “times less potent than TLM S10b in DNA cleavage” value ([5]; metal-free FLM, stoichiometric Fe(II), 20 minutes) was 12 times and the “cleavage of plasmid DNA in vitro” value ([5]; result in words) was “able to cleave form I DNA; also recorded: cleaves pGEM-3Z plasmid DNA in vitro in a concentration-dependent manner”. For the same compound, the “mean fluorescent channel number (mean FL1)” value (C-10E cells [8]; C-10E cells, 100 μM FLM, 60 minutes, 37° C.) was 61, the “fold difference in fluorescent intensity, C-10E lower than A-253 cells” value (C-10E cells [8]; flow cytometry of FLM content) was 4 fold and the “times less potent than BLM A2 (antiproliferative potency)” value [1, 12] was 33 times. For the same compound, the “times less potent than TLM S10b (antiproliferative potency)” value [1, 12] was 25 times, the IC50 [1] was 1250 ± 80 nM and the “IC50 value times higher than TLM S10b or BLM A2” value ([1]; growth inhibition assay) was 25-30 times. The “mean fluorescent channel number (mean FL1)” value (A-253 cells [9]) was 250, the “fold resistance of C-10E cells” value (C-10E cells [2]) was 50 fold and the IC50 (C-10E cells [2]) was 66000 ± 1700 nM. For the same compound, the “resistance index C-10E” value (C-10E cells [2]) was 53, the “mean fluorescent channel number (mean FL1)” value (C-10E^R cells [10]; C-10E^R cells, 100 μM FLM, 60 minutes, 37° C.) was 122 and the “fold lower fluorescent intensity, C-10E^R compared to A-253 cells” value (C-10E^R cells [10]; flow cytometry of FLM content) was 2 fold. The “fold difference in drug accumulation, FLM vs BLM A2” value (A-253 cells [11]; 50 μM) was ~2 fold, the “cell-associated FLM” value (A-253 cells [11]; 100 μM FLM, fluorometry) was 246 pmol/106 cells and the “cell-associated drug, comparison of BLM A2 and FLM” value (A-253 cells [11]; 100 μM drug) was 255 pmol/10^6 cells. For the same compound, the “cell-associated FLM fold higher than for BLM A2” value (A-253 cells [11]; 100 μM) was “approximately 2.5 fold”, the relative fluorescent units [3] was 836 relative fluorescent units and the fluorescent quantum yield ([3]; 50 mM bicarbonate buffer (pH=9.0), excited at 497 nm, emission maximum 523 nm) was 0.71. The “fluorescent intensity times greater than that of BLM A2, TLM S10b and LBM” value ([3]; equimolar solutions) was 300 to 400 times.
